One assay has as its target T1, tubulin (Sus scrofa, UniProt P02554).
T1 construct: purchased Cytoskeleton Inc. BK011P
The experiment in a line: In vitro tubulin polymerization assay (HTS-tubulin polymerization kit, Cytoskeleton). In kind it is biochemical. As to conditions: 3 μM compound, fluorescence, 70 minutes at 37° C. As for the experimental part: 1.5 ul of 10× strength compound, 20 μl of tubulin solution and Triton X-100 at a final concentration of 0.01% were added to each well in a 384 well plate. The reactions were assembled on ice to prevent tubulin pre-polymerization. For kinetic measurements, microtubule polymerization was monitored by reading the fluorescence at 420 nm (due to the incorporation of a fluorescent reporter into microtubules as polymerization occurs) every ten seconds using a Tecan M1000 microplate reader (FIG. 6B). […] Fluorescence increased as polymerization occurred, due to the incorporation of 4′,6-diamidino-2-phenylindole. Fluorescence was monitored every minute for 70 minutes at 37° C.
Tubulin polymerization reactions were carried out according to the manufacturer (Cytoskeleton, BK011P) in the presence of 3 μM colchicine, MI-181, taxol or DMSO. Polymerization was monitored with a Tecan M1000 micro-plate reader at 420 nm for 70 minutes at 37° C. The results are depicted in FIG. 11.

A further assay concerns melanoma (M233). Briefly: CellTiter-Glo cell viability, M233. In kind it is cell-based. Here is the method: (§1) To determine if MI-181 had broad anti-cancer activity, we treated a diverse panel of cancer cell lines including cervical adenocarcinoma (HeLa), breast adenocarcinoma (MCF7), melanoma (M233), osteosarcoma (U205), acute lymphoblastic leukemia (CCRF-CEM), non-small cell lung carcinoma (NCI-H460), and breast adenocarcinoma (MCF7) with MI-181 and determined its cell viability IC50 (FIGS. 13A and 13B). […] Therefore, the efficacy of MI-181 was analyzed in a panel of melanoma cell lines with defined genetic backgrounds including BRAF^V600E and NRAS^Q61L mutations and varied sensitivities to Vemurafenib (BRAF inhibitor) and Trametinib (MEK inhibitor), which are currently used to treat BRAF^V600E melanomas^43,44 (FIG. 10c). […] As a general trend BRAF^V600E cell lines were slightly more sensitive than NRAS^Q61L cell lines and MI-181 was effective in Vemurafenib and Trametinib resistant cell lines (FIG. 10c and Table 3). Finally, we tested the ability of MI-181 to inhibit melanoma colony formation using the M233 and M308 cell lines (both resistant to Vemurafenib). Indeed, MI-181 was a potent inhibitor of colony formation (percentage colony formation for 10 nM MI-181=0.2±0.1 and 0.8±0.7; for 10 nM colchicine=0.1±0.06 and 1.5±0.5; and for 10 nM Vemurafenib=94±7 and 102±5) (FIG. 10d). Thus, MI-181 is a potent inhibitor of melanoma cell lines. […]

The subject of the next assay is M243. The experiment in a line: CellTiter-Glo cell viability, M243. The format is cell-based. Here is the method:
as §1

The subject of a further assay is M238. The experiment in a line: CellTiter-Glo cell viability, M238. The format is cell-based. As for the experimental part:
as §1
For orientation: Cellular ATP, detected with luciferase, serves as a proxy for viable cell number.

The test system of the next assay is M229. Briefly: CellTiter-Glo cell viability, M229. The format is cell-based. Here is the method: as §1
Another assay deals with M244. Briefly: CellTiter-Glo cell viability, M244. The format is cell-based. As for the experimental part:
as §1

A further assay has as its system M409. The experiment in a line: CellTiter-Glo cell viability, M409. In kind it is cell-based. Here is the method:
as §1

For a further assay, the system named is M230. The experiment in a line: CellTiter-Glo cell viability, M230. In kind it is cell-based. As for the experimental part: as §1
The subject of assay [1] is diverse panel of cancer cell lines. The experiment in a line: Cell viability in a diverse panel of cancer cell lines. In kind it is cell-based. Particulars: HeLa, M233, U205, CCRF-CEM, NCI-H460; MCF7 excepted; read-out: cell viability IC50 across most cancer cell lines. Here is the method: as §1
The next assay relates to M233. Briefly: Melanoma colony formation, M233. In kind it is cell-based. Particulars: 10 nM, M233 (first value of pair). As for the experimental part: (§2) To determine if MI-181 had broad anti-cancer activity, we treated a diverse panel of cancer cell lines including cervical adenocarcinoma (HeLa), breast adenocarcinoma (MCF7), melanoma (M233), osteosarcoma (U205), acute lymphoblastic leukemia (CCRF-CEM), non-small cell lung carcinoma (NCI-H460), and breast adenocarcinoma (MCF7) with MI-181 and determined its cell viability IC50 (FIGS. 13A and 13B). […] Therefore, the efficacy of MI-181 was analyzed in a panel of melanoma cell lines with defined genetic backgrounds including BRAF^V600E and NRAS^Q61L mutations and varied sensitivities to Vemurafenib (BRAF inhibitor) and Trametinib (MEK inhibitor), which are currently used to treat BRAF^V600E melanomas^43,44 (FIG. 10c). […] As a general trend BRAF^V600E cell lines were slightly more sensitive than NRAS^Q61L cell lines and MI-181 was effective in Vemurafenib and Trametinib resistant cell lines (FIG. 10c and Table 3). Finally, we tested the ability of MI-181 to inhibit melanoma colony formation using the M233 and M308 cell lines (both resistant to Vemurafenib). Indeed, MI-181 was a potent inhibitor of colony formation (percentage colony formation for 10 nM MI-181=0.2±0.1 and 0.8±0.7; for 10 nM colchicine=0.1±0.06 and 1.5±0.5; and for 10 nM Vemurafenib=94±7 and 102±5) (FIG. 10d). Thus, MI-181 is a potent inhibitor of melanoma cell lines.

For the next assay, the system named is M308. The experiment in a line: Melanoma colony formation, M308. In kind it is cell-based. Particulars: 10 nM, M308 (second value of pair). Here is the method:
as §2

T1 sequence (P02554 whole entry): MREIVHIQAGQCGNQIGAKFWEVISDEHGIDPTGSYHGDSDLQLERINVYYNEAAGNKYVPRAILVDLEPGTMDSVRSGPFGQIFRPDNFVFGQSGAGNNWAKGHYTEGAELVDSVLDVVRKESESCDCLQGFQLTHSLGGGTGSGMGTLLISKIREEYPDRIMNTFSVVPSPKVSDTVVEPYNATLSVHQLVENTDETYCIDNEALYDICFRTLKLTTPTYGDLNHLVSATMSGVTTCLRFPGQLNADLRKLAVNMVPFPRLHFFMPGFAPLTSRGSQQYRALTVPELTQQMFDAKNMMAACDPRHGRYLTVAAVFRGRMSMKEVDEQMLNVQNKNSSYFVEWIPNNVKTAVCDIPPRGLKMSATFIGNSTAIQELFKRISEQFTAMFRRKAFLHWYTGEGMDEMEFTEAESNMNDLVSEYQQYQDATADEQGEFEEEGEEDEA
T1 sequence (P02550 whole entry partner): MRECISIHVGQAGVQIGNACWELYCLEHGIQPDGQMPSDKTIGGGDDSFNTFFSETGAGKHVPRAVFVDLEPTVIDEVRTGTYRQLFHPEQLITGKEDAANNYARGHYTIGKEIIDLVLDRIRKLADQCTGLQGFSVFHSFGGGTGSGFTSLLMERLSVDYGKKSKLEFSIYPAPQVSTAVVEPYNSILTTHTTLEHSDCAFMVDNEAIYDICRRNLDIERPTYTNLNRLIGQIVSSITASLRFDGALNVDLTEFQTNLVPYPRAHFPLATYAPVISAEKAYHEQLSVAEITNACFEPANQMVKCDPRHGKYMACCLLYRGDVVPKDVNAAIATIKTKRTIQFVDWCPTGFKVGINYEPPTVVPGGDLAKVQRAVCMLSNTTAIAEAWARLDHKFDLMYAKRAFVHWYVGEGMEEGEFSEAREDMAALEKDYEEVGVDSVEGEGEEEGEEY

As usually defined, the IC50 is the concentration that inhibits the measured activity by half. With `Cc1cc2nc(/C=C/c3cccnc3)sc2cc1C` [MI-181], the “inhibition of microtubule (tubulin) polymerization in vitro” value at tubulin is listed as “inhibits tubulin polymerization”. For the same compound, the IC50 with melanoma (M233) was found to be 24.4 nM; in the assay with M243, 26 nM; in the assay with M238, 30.5 nM; in the assay with M229, 36.7 nM; in the assay with M244, 41.5 nM; with M409, 41.9 nM. For the same compound, the IC50 with M230 was 42 nM; in [1], 30 to 360 nM. Also, the percentage colony formation in the assay on M233 came out at 0.2±0.1; in the assay with M308 it was 0.8±0.7.

The record behind these values is patent US10913750B2, “Tubulin-binding compounds, compositions and uses related thereto” (The Regents of the University of California, priority 2015, dated 2021).
